The source made the active and inactive calls. How the calls were made is not given here.
Biological target: glutathione S-transferase (GST-GSH binding)
Experiment: GST–glutathione interaction disruption – biochemical, multiplex beads, flow cytometry, HPSMTB buffer, profiling panel (AID 1324);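 further: glutathione beads loaded with GST-green fluorescent protein and no fluorescent Bim peptide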
Details: multiplex bead flow cytometry, MCF

Compound | EC50
Cc1ccnc(SCc2cc(=O)c(OC(=O)c3ccc(Cl)c([N+](=O)[O-])c3)co2)n1 | inactive
CN1CCN(C2=C(Cl)C(=O)C(c3cnc(N4CCCCC4)s3)=C(Cl)C2=O)CC1 | 220 nM
O=C(Nc1cccc(Cl)c1)Nc1ccnc(-c2cccnc2)n1 | inactive

Same assay, conditions: multiplex bead flow cytometry, MCF, hits give high values, concentration not given here

Compound | percent span inhibition
O=C(Cc1ccc(-c2ccccc2)cc1)NC1CCCC1 | inactive
O=C(Nc1ccc(Cl)cn1)Nc1ccccc1F | inactive
CNC(CC(=O)c1ccc([N+](=O)[O-])cc1)C(Cl)(Cl)Cl (stereo not given) | inactive
O=C(O)/C=C/C(=O)NNC(=O)c1ccc(Br)cc1 | inactive
COc1ccc(NS(=O)(=O)c2cc(NC(=O)c3ccc(C)o3)ccc2N2CCCCC2)cc1 | inactive
Cc1ccc(-c2cc(C(=O)Nc3cc(C(=O)O)ccc3C)c3ccccc3n2)cc1 | inactive
O=C(NCc1ccccc1)c1ccc2nc(-c3ccco3)c(-c3ccco3)nc2c1 | inactive
O=C(Cn1c2ccccc2c(=O)c2ccccc21)N/N=C/c1ccc(N2CCCC2)c([N+](=O)[O-])c1 | inactive
O=C(N/N=C/c1cccnc1)c1cccc(S(=O)(=O)N2CCCC2)c1 | inactive
CCN(CC)c1ccc(NC(=O)COc2ccccc2C)cc1S(=O)(=O)Nc1ccccc1OC | inactive
O=C1c2ccccc2-c2onc3ccc(N4CCCC4)c1c23 | inactive
Cc1cc2n(c1)CCn1c(C)ccc1-2 | inactive
Oc1ccc(NCc2ccccc2OCc2ccccc2)cc1 | inactive
COc1ccc(C(=O)Nc2ccc(NC(=O)c3cccs3)cc2)cc1Cl | inactive
COc1c(C)cc(Br)cc1C(=O)Nc1ccc(S(N)(=O)=O)cc1 | inactive
N#Cc1cccc(N=c2ssnc2Cl)c1 | inactive
O=C(NC1=C(NC2CCS(=O)(=O)C2)C(=O)c2ccccc2C1=O)c1ccccc1 (stereo not given) | inactive
Cc1ccc(/C=C/C(=O)c2ccccc(=O)c2O)c(C)c1 | inactive
O=C(COc1ccccc1)N1CCN(c2ncnc3c2cnn3-c2ccccc2)CC1 | inactive
Cc1onc(-c2ccccc2)c1C(=O)Nc1nnc(COc2ccc(Cl)cc2)s1 | inactive
Cc1cccn2c(=O)c3cc(C(N)=S)c(=N)n(CCCN4CCOCC4)c3nc12 | inactive
O=C(O)c1ccccc1NSc1ccccc1[N+](=O)[O-] | inactive
COc1ccc(C(=O)NC(=S)N2CCNC(=O)C2)cc1Br | inactive
CC(CCc1ccccc1)NC(=O)C1CCN(S(=O)(=O)N2CCCCC2)CC1 (stereo not given) | inactive
Cc1cc(C)n(CC(=O)N/N=C/c2cccc([N+](=O)[O-])c2)n1 | inactive

Compound | percent span inhibition
c1ccc(-c2nc(N3CCCCCC3)c3ccccc3n2)nc1 | inactive
COc1ccc2nc(C)cc(SCC(=O)N/N=C/c3ccc(O)c(O)c3)c2c1 | inactive
CNc1ccc(Br)cc(C(=O)/C=C/c2ccc(OC)cc2)c1=O | inactive
Cc1ccc(OCC(=O)NCc2ccccn2)c(Br)c1 | inactive
CCN(CC)C(=O)COC(=O)c1cc(-c2ccco2)nc2ccccc12 | inactive
CC(C)CCN1CCN(Cc2cccc3cccnc23)CC1CCO (stereo not given) | inactive
O=C(C1CCC(Cn2c(=S)[nH]c3ccccc3c2=O)CC1)N1CCN(c2ccccn2)CC1 (stereo not given) | inactive
N=C1C(c2nc3ccccc3s2)=C(O)CN1Cc1ccccc1 | inactive
O=C(CSc1ccc2nnc(-c3ccccn3)n2n1)Nc1nccs1 | inactive
CCN(CC)c1ccc(Nc2nc(N3CCOCC3)c3ccccc3n2)cc1 | inactive
COC(=O)C1C2c3ccccc3OC1(C)N=c1s/c(=C/c3cnn(C)c3C)c(=O)n12 (stereo not given) | inactive
O=C1/C(=C/c2cccs2)Sc2ccccc21 | inactive
Cc1ccc(-c2cc(C(=O)N3CCN(c4ncccn4)CC3)c3cc(Br)ccc3n2)o1 | inactive
Cc1ccccc1OCC(=O)N/N=C/c1ccccn1 | inactive
c1ccc(-c2nc(N3CCOCC3)s[n+]2-c2ccccc2)cc1 | inactive
CC[n+]1c(/C=C/C=C/N(C(C)=O)c2ccccc2)sc2ccccc21 | inactive
CC(=O)c1ccc2c(c1)C1C=CCC1C(c1ccncc1)N2 (stereo not given) | inactive
Cc1ccc(NC(=O)c2cc(S(=O)(=O)NCCC3=CCCCC3)ccc2F)cc1F | inactive
COc1cccc2c(SCC(=O)N/N=C/c3ccc(O)c(O)c3)cc(C)nc12 | inactive
COP(=O)(CC(=O)O)c1ccccc1 (stereo not given) | inactive
COc1ccc(C(=O)/C=C/c2cc(OC)c(O)c(OC)c2)c(F)c1 | inactive
O=C(NCCN1CCOCC1)c1cc(Cl)ccc1[N+](=O)[O-] | inactive
CCOc1ccc(N2C(=O)C(Cl)=C(Nc3ccccc3O)C2=O)cc1 | inactive
COC(=O)Cc1cc(=O)[nH]c(Nc2nc3ccccc3o2)n1 | inactive
Cc1cc2nc(/C(C#N)=C/c3ccncc3)[nH]c2cc1C | inactive

Compound | percent span inhibition
COc1cc(/C=N/Nc2nc3c(c(=O)n(C)c(=O)n3C)n2Cc2ccccc2)ccc1OC(=O)c1ccco1 | inactive
O=C1NC(=S)S/C1=C/c1ccc(N2CCOCC2)o1 | inactive
COC(=O)c1sc(NC(=O)c2ccc(Cn3cc(Cl)cn3)o2)c(C#N)c1C | inactive
COc1ccccc1Cn1nnc2c(=O)[nH]c(C3CCN(C(=O)c4ccc(C)cc4)CC3)nc21 | inactive
O=C(CC1NCCNC1=O)Nc1cccc([N+](=O)[O-])c1 (stereo not given) | inactive
O=C(COCC(=O)NCc1ccccc1)NCc1ccccc1 | inactive
Cc1nnc(NCc2n[nH]c(=O)c3ccccc23)c2ccccc12 | inactive
COc1ccc2cc(CN(CCc3ccccc3)Cc3nnnn3CC3CCCO3)c(=O)[nH]c2c1 (stereo not given) | inactive
O=C1CSc2ccc(C(=O)Nc3cccc(S(=O)(=O)Nc4ccc(Br)cc4)c3)cc2N1 | inactive
Fc1ccc(C2=Nn3c(Cc4ccccc4F)nnc3SC2)cc1 | inactive
C/C(=C\c1ccco1)C1Nc2cccc3cccc(c23)N1 | inactive
Cc1ccc(NC(=O)C/C(N)=N/OC(=O)c2ccccc2)cc1 | inactive
COC(=O)CSc1nccc(-c2cccs2)n1 | inactive
CCOc1ccccc1/C=N/NC(=O)CNC(=O)COc1ccccc1 | inactive
Cc1cc(Cl)c(S(=O)(=O)NCC2CCCO2)cc1OCC(N)=O (stereo not given) | inactive
C1=CC2c3ccccc3NC(c3ccncc3)C2C1 (stereo not given) | inactive
N#Cc1ccc(N=c2ssnc2Cl)cc1 | inactive
CCOC(=O)CSC1=NC(=O)/C(=C/c2ccc(OC)cc2)S1 | inactive
Cc1ccc(S(=O)(=O)NC(=O)COc2ccccc2C)cc1 | inactive
CCOC(=O)c1ccc(N=c2ssnc2Cl)cc1 | inactive
O=C(O)CCN1C(=O)/C(=C\c2ccc(-c3nc4ccccc4s3)o2)SC1=S | inactive
Cc1ccc(-c2nc3c(c(=O)[nH]c(=O)n3Cc3ccccc3)n2Cc2ccccc2)o1 | inactive
CC1(C(=O)N(CC(=O)NC2CCCC2)Cc2ccco2)CC(=O)N=C2C=CC=CN21 (stereo not given) | inactive
Cc1ccc(-c2ccc(/C=C/C(=O)c3ccccc3)o2)cc1 | inactive
Cn1cccc1CC(=O)N/N=C\c1ccccc1 | inactive

Compound | percent span inhibition
Cc1cc(C)c(S(=O)(=O)/N=C2/C=C(SCC(=O)O)C(=O)c3ccccc32)cc1C | inactive
CC(/C=C/C(=O)c1ccc(C)cc1)=C\c1ccccc1 | inactive
Cc1cccc(Nc2nc(-c3ccncc3)cs2)c1 | inactive
CCOC(=O)C1=C(Cc2ccc(OC)cc2)C(=O)c2ccccc2C1=O | inactive
CNC(=S)N/N=C/C1=CCC2CC1C2(C)C (stereo not given) | inactive
Cc1ccc(NC(=S)N2CCn3cccc3C2c2cccnc2)cc1 (stereo not given) | inactive
COc1ccc(NC(=O)/C(C#N)=C/c2c(C)nn(-c3ccc(F)cc3)c2Cl)cc1Cl | inactive
CCC(/C=C1\Sc2ccc(OC)cc2N1CCO)=C\c1sc2ccc(OC)cc2[n+]1CCO | inactive
Cc1ccc(-n2nc(C)c(C(=O)O)n2)c(C)c1 | inactive
NC(=O)c1c(N)sc2c1CCCCC2 | inactive
CCOc1ccccc1C(=O)NC1CC2CCCC(C1)N2C1CC1 (stereo not given) | inactive
CCOC(=O)c1nc(Nc2ccc(Nc3ccccc3)cc2)c2ccccc2n1 | inactive
CCSc1ncc(Cl)c(C(=O)Nc2sc3c(c2C(=O)NCc2cccnc2)CCCC3)n1 | inactive
CN1C(=O)/C(=C/c2ccc(-c3ccccc3[N+](=O)[O-])o2)SC1=Nc1ccc(Cl)c(C(=O)O)c1 | inactive
O=C1/C(=C\c2ccc(-c3ccccc3Cl)o2)SC(=S)N1CC1CCCO1 (stereo not given) | inactive
O=C(Nc1nnc(C2CC2)s1)C1Cc2ccccc2CN1S(=O)(=O)c1ccccc1F (stereo not given) | inactive
Cc1ccc(/C=N/NC(=O)CSc2nnc(-c3ccc(Cl)cc3)n2-c2ccccc2)o1 | inactive
O=C(Nc1ccccc1)Nc1ccc2ncoc2c1 | inactive
CCc1nn2cc(C(=O)c3cc(C)ccc3O)cnc2c1-c1ccc(F)cc1 | inactive
Cc1nc2ccccc2n1CSc1ccccc1 | inactive
CCCCOC(=O)c1nc(Cl)c(Cl)c(N)c1Cl | inactive
Cc1cc(-c2nn(-c3ccccc3)cc2/C=C2\SC(N)=NC2=O)ccc1OC(C)C | inactive
